The subject of one series is 6 Hz-induced seizures. Nature of the series: 6 Hz seizure test in mice with isobolographic analysis. Particulars: for doses for antiseizure effect compared with those needed in the MES test: MES data obtained in other studies; for anticonvulsant effects against 6 Hz seizure: drug administered alone, i.p., mice.
A further series deals with epileptic seizures. Nature of the series: ED50 values in various models of the rat and the mouse. It counts as in vivo. The following applies: i.p. The procedure: The skilled person may determine the ED50 values by methods known in the art. It is preferred that the ED50 values are determined by preclinical or/and clinical trials. Published ED50 values may also be used. […] FIGS. 12 and 13 disclose specific ED50 values obtained in various models of the rat and the mouse. A person skilled in the art knows that in a particular model, among different species, ED50 values show a variation by a factor of up to 5 or even larger.

Series [1] has as its system 6 Hz refractory seizure model. The following applies: in vivo; cited from earlier work.
In a further series the test system is motor coordination. The series can be described thus: Rotarod test. In kind it is in vivo, mice. Particulars: drug alone at pharmacological doses. The procedure: The impaired motor function was quantified by the rotarod test in mice according to Dunham and Miya (1957). The rotarod test was undertaken by use of a rod of 3 cm diameter, rotating at constant speed of 6 rpm. In this test, an acute neurological deficit (adverse effects produced by AEDs) was indicated by the inability of the animals to maintain their equilibrium for at least 120 s on the rotating rod. The dose ratio assessed in this model was always 1:1. For comparison, each AED was tested alone at its ED50 and 50% of its ED50 in the 6 Hz model.
Background: The rotarod test checks motor coordination on a turning rod.

Series [2] relates to voltage gated sodium channels. Nature of the series: Voltage gated sodium channels in cell/tissue culture. The following applies: recent data. It counts as cell-based.
In series [3] the target is collapsing response mediator protein CRMP-2 (Homo sapiens, UniProt Q16555). Nature of the series: Modulation of CRMP-2. The following applies: recent data.
In series [4] the test system is maximal electroshock seizure [MES]. The following applies: in vivo; cited from earlier work.
Another series relates to sound-induced seizure. The following applies: mouse, in vivo; cited from earlier work.
Series [5] deals with refractory self-sustaining status epilepticus. Particulars: in vivo; cited from earlier work.
For series [6], the system named is cobalt-homocysteine-induced status epilepticus. Particulars: in vivo; cited from earlier work.
In series [7] the test system is lithium-pilocarpine-induced status epilepticus. The following applies: in vivo; cited from earlier work.
The test system of series [8] is neurotransmitter receptors or ion channels. The following applies: more than 100 different sites; cited from earlier work.
The test system of the next series is NMDA-evoked currents. The following applies: cell/tissue culture; cited from earlier work.
Series [9] concerns voltage gated sodium channels. Particulars: cell/tissue culture; cited from earlier work.
Another series relates to GABA currents. Particulars: mouse cortical neurons; cited from earlier work.
In the next series the test system is glutamate transmission. The following applies: mouse cortical neurons; cited from earlier work.
Series [10] has as its system pattern of neuronal activation. The following applies: 2-deoxy glucose technique; cited from earlier work.
Series [11] can be described thus: Clinical population pharmacokinetic analysis.

“Also recorded” adds a separate entry of the source.

As for `NC(=O)N1c2ccccc2C=Cc2ccccc21` [CBZ, carbamazepine], in the series on 6 Hz-induced seizures, the “doses for antiseizure effect compared with those needed in the MES test” value is “significantly higher doses” and the “anticonvulsant effects against 6 Hz seizure” value (“anticonvulsant effects” below) is “dose-dependent anticonvulsant effects”.
The corresponding values for `CC1(C)O[C@@H]2[C@@H](CO[C@@]3(COS(N)(=O)=O)OC(C)(C)O[C@@H]23)O1` [TPM, topiramate] are “significantly higher doses” and “dose-dependent anticonvulsant effects”.
`CC[C@@H](C(N)=O)N1CCCC1=O` [LEV, levetiracetam]: the ED50 result with epileptic seizures is recorded as “about 20 mg/kg body weight”. Also, the “protection in the 6 Hz model” value in series [1] is “complete protection”. Further, the “anticonvulsant effects” value with 6 Hz-induced seizures was “dose-dependent anticonvulsant effects”.
On to `NCC1(CC(=O)O)CCCCC1` [GBP, gabapentin], for which, in the series on 6 Hz-induced seizures, the “doses for antiseizure effect compared with those needed in the MES test” value was “significantly higher doses” and the “anticonvulsant effects” value was “dose-dependent anticonvulsant effects”.
Turning to `Nc1nnc(-c2cccc(Cl)c2Cl)c(N)n1` [LTG, lamotrigine], in the series on epileptic seizures, the ED50 result is recorded as “about 85 mg/kg body weight”. In addition, in the series with 6 Hz-induced seizures, the “doses for antiseizure effect compared with those needed in the MES test” value is recorded as “significantly higher doses” and the “anticonvulsant effects” value is listed as “dose-dependent anticonvulsant effects”.
As to `COC[C@@H](NC(C)=O)C(=O)NCc1ccccc1` [LCM, R-2-acetamido-N-benzyl-3-methoxypropionamide], the rotarod performance entry in the series on motor coordination was “did not impair rotarod performance”. Further, in [2], the “slow inactivation of voltage-gated sodium channels” value was “enhances slow inactivation”. In addition, the “effect on CRMP-2” value in [3] is on record as “modulates”. The anticonvulsant activity result (in series [1]; in series [4]; in the series with sound-induced seizure) was “anticonvulsant activity has been shown” in each case. Besides, the “activity against status epilepticus” value in series [5] was “active”; in series [6], “effective”; in series [7], “effective”. Besides, the binding entry in [8] was “neither LCM nor its metabolites bind”. In addition, the “effects on NMDA-evoked currents” value in the series with NMDA-evoked currents is listed as “no effects”. Moreover, in series [9], the “effects at voltage gated sodium channels” value is “no effects”. For the same compound, in the series with GABA currents, the “effect on GABA currents” value is recorded as “increased GABA currents”. Moreover, the “effect on glutamate transmission” value in the series on glutamate transmission is given as “inhibited glutamate transmission indirectly”. Also, in [10], the “effect on basal patterns” value is recorded as “no effect”. The “effect on the pattern of neuronal activation by 6 Hz induced seizures” value in [10] is “attenuated”. The “effect on plasma levels of AEDs or vice versa” value in series [11] is given as “no evidence for any effect”. Also, the “potency compared to the other tested AEDs” value in the series on 6 Hz-induced seizures (6 Hz model, drugs alone) is listed as “highest potency”. Besides, the “anticonvulsant effects” value in the series with 6 Hz-induced seizures was “dose-dependent anticonvulsant effects; also recorded: fully protected”.
On to `O=C1NC(=O)C(c2ccccc2)(c2ccccc2)N1` [PHT, phenytoin], for which, in the series on 6 Hz-induced seizures, the “doses for antiseizure effect compared with those needed in the MES test” value is “significantly higher doses” and the “anticonvulsant effects” value is given as “dose-dependent anticonvulsant effects”.

The record behind these values is patent US9446011B2, “Anticonvulsant combination therapy” (UCB Pharma GmbH, priority 2006, dated 2016).
